From patent US20170216315A1 (priority 2016, published 2017)
Marks after values point to notes of the source that are not given here.

How the values were obtained:
male C57BL/6 mice [1] = test: Amounts of TAG and TC in serum; type: in vivo; details: EK100 1, 5, 10 mg/kg/day vs EtOH group; p<0.05; FIG. 2A
[2] = system: aspartate aminotransferase (AST); test: Activity of AST in serum; type: in vivo, mice; details: EK100 1, 5, 10 mg/kg/day vs EtOH group; p<0.05; FIG. 8
From the text: It has been known that both aspartate aminotransferase (AST) and alanine aminotransferase (ALT) are amino acid metabolic enzymes, which are widely present in the heart, liver, skeletal muscle, kidney and brain. When cells in organs are injured, AST and ALT will be released into the blood. Therefore, the activities of AST and ALT can be used as the injury markers of the above organs to detect organ injuries, wherein the higher activities of AST and ALT represent that organ injuries are more serious. For example, there is much more ALT in the liver. A higher activity of ALT in the liver would indicate a more serious injury.
To understand the effects of alcohol consumption and ergostatrien-3β-ol intake on the injury conditions of mice organs, mouse serum samples of each group provided in [Preparation Examples] C-2 (200 μl per group) were placed into automatic dry-biochemistry analyzer (Arkray, Inc., Japan, Spotechem™ EZ, SP-4430) with AST/ALT expert analytic test paper (Arkray, Inc., Japan, Spotechem™ II) to detect the activities of AST and ALT.

[3] = system: Superoxide dismutase (SOD); test: Activity of SOD in mouse liver; type: in vivo, mice; details: for Activity of SOD: liver homogenate, alcoholic liquid diet, 4 weeks
[4] = system: glutathione peroxidase (GPx); test: Activity of GPx in mouse liver; type: in vivo, mice; details: for Activity of GPx: liver homogenate, alcoholic liquid diet, 4 weeks
TNF-α = test: Concentration of TNF-α in liver (ELISA); type: in vivo, mice; details: EK100 1, 5, 10 mg/kg/day vs EtOH group; p<0.05; FIG. 9A
From the text: D-3 were taken and diluted with Calibrator Diluent RD 5-17 to ⅓ of the original concentration respectively, and then a Quantikine® Rat TNF-α or a Quantikine® Rat IL-1β commercial kit (purchased from R&D Systems company, United States) was used for the Enzyme-linked immune-sorption assay (ELISA) to measure the amounts of tumor necrosis factor-alpha (TNF-α) and interleukin-1β (IL-1β) therein. […]

[5] = system: TLR4, MyD88, NF-κB, iNOS, COX-2, α-SMA; test: Expressions of pro-inflammatory genes in liver (real-time PCR); type: in vivo, mice; details: EK100 1, 5, 10 mg/kg/day vs EtOH group, p<0.05, FIG. 10
Description: C-4 was put into a 0.8 ml RNAlater containing an RNA stabilizer (Qiagen company, United States), and then the commercial kit (E.Z.N.A™ Tissue RNA kit, purchased from Omega Bio-Tek company, United States) was used to extract the mRNA therein. After that, the mRNA sample obtained therefrom was reverse transcribed to provide cDNA, and then specific primers (as shown in Table 2) were used to conduct real-time polymerase chain reaction (real-time PCR) of the cDNA to observe the expression of each gene in the mouse liver, wherein the operation steps of the real-time polymerase chain reaction were as follows: (i) 2 μl of cDNA (50 ng/μl), 5 μl of SYBR Green (Molecular Probes company, United States, Applied Biosystems/Fast SYBR® Green Master Mix), 2 μl of RNase-free water, 1 μl of forward primer, and 1 μl of reverse primer were well mixed and then centrifuged; (ii) the above sample was put into a real-time polymerase chain reaction system (Applied Biosystems/StepOne Real time PCR system) to detect the expression of each gene, wherein the expression of GAPDH was used as the positive control.

male C57BL/6 mice [6] = test: Hepatitis histological activity index (HAI score); type: in vivo; details: EK100 1, 5, 10 mg/kg/day vs EtOH group; p<0.05; FIG. 11
From the text: To further observe the inflammation of mouse liver, the internationally accepted hepatitis histological activity index (HAI score) was used to categorize the hepatitis activity into the portal zone, lobuli hepatis zone, and periportal zone, which were scored with 0 to 10 points (as shown in Table 8). […] J Insur Med. 33: 110-113 (2001),” which is incorporated herein for reference.

CYP2E1 = test: Protein expression of CYP2E1 in liver (western blot); type: in vivo, mice; details: EK100 1, 5, 10 mg/kg/day vs EtOH group, p<0.05, FIGS. 13A, 13B
male C57BL/6 mice [7] = test: TEAC value of liver homogenate; details: for TEAC value: liver homogenate, alcoholic liquid diet, 4 weeks
[8] = EK100 10 mg/kg/day (EK100_10X) vs EtOH group, p<0.05

**Q.** With `CC(C)[C@@H](C)/C=C/[C@@H](C)[C@H]1CC[C@H]2C3=CCC4C[C@@H](O)CC[C@]4(C)C3=CC[C@]12C` (some centres unmarked) [EK100] as the compound, how does the “Amount of TAG in serum compared to EtOH” value (male C57BL/6 mice [1]) read?
**A.** significantly decreased

**Q.** And the “Amount of TC in serum compared to EtOH” value (male C57BL/6 mice [1])?
**A.** significantly decreased

**Q.** And the “Activity of AST in serum compared to EtOH” value [2]?
**A.** significantly decreased

**Q.** And the “Activity of SOD in liver compared to EtOH” value [3, 8]?
**A.** significantly increased

**Q.** What about the “Activity of SOD” value ([3]; EK100_1X: 1 mg/kg/day gavage) of the same compound?
**A.** 77.56 ± 3.33^c munit/mg protein

**Q.** What about the “Activity of SOD” value ([3]; EK100_5X: 5 mg/kg/day gavage) of the same compound?
**A.** 90.40 ± 6.16^b munit/mg protein

**Q.** And the “Activity of SOD” value ([3]; EK100_10X: 10 mg/kg/day gavage)?
**A.** 118.47 ± 4.64^a munit/mg protein

**Q.** What about the “Activity of GPx in liver compared to EtOH” value [4, 8] of the same compound?
**A.** significantly increased

**Q.** And the “Activity of GPx” value ([4]; EK100_1X: 1 mg/kg/day gavage)?
**A.** 114.16 ± 2.40^b unit/mg protein

**Q.** And the “Activity of GPx” value ([4]; EK100_5X: 5 mg/kg/day gavage)?
**A.** 110.74 ± 3.52^b unit/mg protein

**Q.** And the “Activity of GPx” value ([4]; EK100_10X: 10 mg/kg/day gavage)?
**A.** 131.89 ± 6.83^a unit/mg protein

**Q.** And the “Concentration of TNF-α in liver compared to EtOH” value (TNF-α)?
**A.** significantly decreased

**Q.** And the “Expressions of pro-inflammatory genes in liver compared to EtOH” value [5]?
**A.** significantly decreased

**Q.** And the “HAI score of periportal inflammation (necrosis) compared to EtOH” value (male C57BL/6 mice [6])?
**A.** significantly decreased

**Q.** And the “HAI score of portal inflammation compared to EtOH” value (male C57BL/6 mice [6])?
**A.** significantly decreased

**Q.** And the “Protein expression of CYP2E1 in liver compared to EtOH” value (CYP2E1)?
**A.** significantly decreased

**Q.** What about the “TEAC value of liver compared to EtOH” value (male C57BL/6 mice [7]; EK100 1, 5, 10 mg/kg/day vs EtOH group, p<0.05) of the same compound?
**A.** significantly increased

**Q.** What about the TEAC value (male C57BL/6 mice [7]; EK100_1X: 1 mg/kg/day gavage) of the same compound?
**A.** 69.18 ± 2.77^a nmol/mg protein

**Q.** And the TEAC value (male C57BL/6 mice [7]; EK100_5X: 5 mg/kg/day gavage)?
**A.** 75.23 ± 2.61^a nmol/mg protein

**Q.** What about the TEAC value (male C57BL/6 mice [7]; EK100_10X: 10 mg/kg/day gavage) of the same compound?
**A.** 70.50 ± 2.25^a nmol/mg protein
